Data on one compound can be found in ChEMBL document CHEMBL1155665, “Euplectin and coneuplectin, new naphthopyrones from the lichen Flavoparmelia euplecta” (J Nat Prod, 2000).

Values after ≈ are worked out from the molar mass of the structure shown.

The test has as its system P815. Nature of the test: Antiproliferative activity against mouse P815 cells assessed as incorporation of [3H]thymidine after 18 hrs by liquid scintillation counting. It counts as functional, cell-based.

One may read the IC50 as the midpoint of a concentration-inhibition curve. With `Cc1cc(=O)c2c(O)cc3cc4c(c(O)c3c2o1)C(=O)C=C4` [EUPLECTIN], the IC50 was 1.67 µg/mL (≈ 5.68 µM).
